# Data reported in article PMC12297304, “Molecular networking derived from untargeted LC-MS/MS analysis to discover inhibitors of RANKL-induced osteoclastogenesis from Egyptian marine sponge-associated fungi” (Scientific Reports, 2025).
# pIC50: −log10 of the molar value. “Also recorded” adds a separate entry of the source.
# Columns and labels:
# [1] = tested on: RANKL-induced formation of MNCs from RAW264 macrophages; test: Multinucleated TRAP+ve osteoclast (MNCs) counting assay; format: cell-based, murine; conditions: Mus musculus, RAW264.7, 96 h; RAW264 cells, RANKL 50 ng/mL, 4 days; read-out: IC50, inhibition of RANKL-induced formation of multinucleated osteoclasts (MNCs)
# Description: EtOAc fractions of all fungal CH3OH extracts were tested for their ability to inhibit TRAP activity and the formation of multinucleated osteoclasts (MNCs) in RANKL-treated RAW264 macrophages as previously reported[7],[24]. Briefly, RAW264 cells (RIKEN Cell Bank, Tsukuba) were cultured in MEMα medium supplemented with 10% heat-inactivated fetal bovine serum and 1% penicillin/streptomycin and incubated at 37 °C in a 5% CO2 humidified atmosphere in two 96-well plates at a density of 1000 and 6000 cells/well, for TRAP assay and MNCs staining assay, respectively. Samples were then added at a concentration of 50 and 20 µg/mL for extracts, 50, 20, and 10 µM for pure compounds, and 83 µM for the standard quercetin. […]
# Following a 4-day incubation period, the differentiated cells were fixed with 4% paraformaldehyde solution (Sigma–Aldrich, USA), washed with PBS, and stained using a TRAP-staining solution, which consisted of 50 mM sodium tartrate, 45 mM sodium acetate, 0.1 mg/mL naphthol AS-MX phosphate (Sigma– Aldrich, USA), and 0.6 mg/mL fast red violet LB salt (Sigma–Aldrich, USA), pH 5.2, for 1 h or longer at room temperature. TRAP-positive cells, that stained red and contained 3 or more nuclei were determined to be multinuclear osteoclasts and were quantified in each well by counting MNCs in 8 fields/well using a light microscope.
# RAW264 macrophages = test: MTT cytotoxicity assay; format: cell-based, murine; conditions: at the highest tested concentration
# Description: After incubation of cells for one day, media was aspired and replaced with new one supplemented with treatments, whereas controls contained only DMSO. Cells were then kept at 37 °C for three days. Finally, 50 µL of 3-(4,5-dimethylthiazol-2-yl)−2,[…] bromide (MTT) solution (150 µg/mL in medium) was added after aspiration of medium, incubated under the same conditions for 3 h. Then 200 µL of DMSO were added to each well, after removal of the reaction solution, to dissolve the formed formazan salt crystals, and optical density was measured at 570 nm with a microplate reader.
Compound,pIC50 [1],Toxic effect against RAW264 macrophages (RAW264 macrophages)
"COCC(O)COc1ccc(C(C)(C)c2ccc(OCC(O)COC)cc2)cc1 (stereo not shown) [Compound 1, 2,2-bis‐[4‐(2‐hydroxy-3-methoxy-propoxy)phenyl]propane]",4.24,without cytotoxicity; also recorded: no toxic effect
"COc1cc(O)c2c(c1)C1=CC(O)C(O)CC1(C)OC2=O (stereo not shown) [Compound 8, altenuene]",4.42,without cytotoxicity; also recorded: no toxic effect
